Measured values: patent publication US6951840B2, “Lipoglycopeptide antibiotics” (priority 2001, dated 2005)
≈ marks a conversion by molar mass, not a printed value.

Key:
[1] = biological target: T1, E. coli SPase I (Escherichia coli, UniProt P00803, I81L); experiment: Kinetic analysis by HPLC assay with non-fluorogenic peptide substrate; type: biochemical
T1 construct: His-tag (inferred from vector pET15b cloned at NdeI/XhoI and Ni-NTA purification); made in house; host or cells: E. coli BL21(DE3)
Experimental: A kinetic analysis is performed with E. coli SPase I and the non-fluorogenic peptide substrate by HPLC assay as described in Peng, et al. (2001) J. Bacterol. 183, 621-627. 50 μl of reaction volume contains 50 nM E. coli SPase I with different concentrations of substrate and lipoglycopepetide inhibitors. The reaction mixtures are incubated at room temperature for 30 mins., and terminated by the addition of an equal amount of 8 M urea. The final concentration of DMSO in the reaction mixtures is 2%. Substrate cleavage is analyzed by HPLC as described in Peng, et al. (2001) J. Bacterol. 183, 621-627. The initial rate, K1, and inhibition type of the inhibitor is calculated with Sigma Plot 2000, Version 6.2 with enzyme kinetics module (SPSS, Inc., Cat No. 3703564).

[2] = system: E. coli EL744; experiment: Broth micro-dilution MIC, E. coli EL744; type: cell-based; details: Escherichia coli, MHII broth, 23-24 hr at 37° C.
Experimental: (§1) The in vitro antibacterial activity of lipoglycopeptides 1, 2, 5, 6, 7, and 8 is determined according to the National Committee for Clinical Laboratory Standards (NCCLS) recommendations for broth micro-dilution assay using 2xsTH (Todd Hewitt broth), MHII (cation adjusted Mueller Hinton broth) or HTM medium (Haemophilus Test Medium) (Gerhardt, P., et al., (1994) Methods for General and Molecular Bacteriology. American Society for Microbiology, Washington, D.C.). Bacterial strains used for antibacterial assay include both gram-positive and gram-negative bacteria: S. pneumoniae R6, Staphylococcus aureus SA027, Haemophilus influenzae ATCC 49247, E. coli EL683 and EL744. A two-fold serial dilution of the test compound is prepared in 100% DMSO. The assay is performed in the wells of a sterile 96-well microplate, that is inoculated with bacterial cell suspension in growth medium or broth as above. The final volume is 100 μl cell suspension, containing 2.5% DMSO. The starting concentration of bacterial cells is 5×10^5 CFU/ml. The 96-well microplate is incubated for 23-24 hr at 37° C. in an ambient air incubator. Upon completion of incubation, the MIC (minimal inhibitory concentration) is determined by visual examination of the microplate with the aid of a magnifying mirror apparatus. The MIC is the lowest concentration of compound tested that results in no visible sign of bacterial growth.

[3] = biological target: T1, E. coli SPase I; experiment: Fluorimetric IC50 determination, E. coli signal peptidase; type: biochemical
Experimental: Cloning and expression of the E. coli SPase I gene is performed by polymerase chain reaction (PCR) using E. coli genomic DNA as a template and two oligonucleotides as primers: 5′-[…]-3′ (SEQ ID NO: 1) and 5′-[…]-3′ (SEQ ID NO:2). The primers are designed to contain NdeI and XhoI restriction sites at the 5′-ends, respectively, to enable cloning into the bacterial expression vector pET15b (Novagen). The primers are synthesized based upon the published sequence of E. coli SPase I (Wolfe, et al. (1983) J. Biol. Chem. 258, 12073-12080).
Expression vector pET15b-E. coli SPase is constructed by replacing the NdeI/XhoI fragment of pET15b with the PCR fragment that is purified and digested with Ndel and XhoI. The identity of the cloned gene is confirmed by DNA sequencing. For expression of E. coli SPase I, E. coli strain BL21(DE3)(Stratagene) is transformed with pET15b-E. coli SPase, and grown and induced with 0.4 mM IPTG (isopropryl-1-thio-β-D-galactopyranoside) as described in Studier, et al. (1990) Methods Enzymol. 185, 60-89.
For purification of E. coli SPase T, one liter of IPTG-induced E. coli BL21(DE3) cells harboring pET15b-E coli SPase is harvested by centrifugation and re-suspended in 50 ml of lysis buffer containing 50 mM Na2HPO4, 300 mM NaCl, pH 8.0, and sonicated 5 min. on ice. The lysate is then centrifuged at 50,000 g for 1 hr at 4° C. The resultant supernatant is discarded, the pellet is re-suspended, and sonicated for 5 min. in 20 ml of lysis buffer containing 8 M urea. After centrifugation at 50,000 g for 1 hr at 4° C., the supernatant is loaded onto a 5 ml column of pre-equilibrated Ni-nitrilotriacetic acid (NTA) that is then washed with 120 ml of refolding buffer (50 mM NaH2PO4, 300 mM NaCl, 15 mM imidazole) containing a continuous urea gradient from 6 to 1 M with a flow rate of 1 ml/min. The protein is eluted with 20 ml of elution buffer (20 mM Tris-HCl, pH 8.0, 20% glycerol, 1 M urea and 100 mM imidazole), and 1 ml fractions are collected and utilized for enzyme assay.
(§2) “IC50” refers to the concentration of inhibitor required to achieve a half-maximal degree of inhibition of SPase I. The IC50 is determined by a fluorimetric assay as described in Peng, et al. (2001) J. Bacterol. 183, 621-627, with a fluorogenic peptide used as substrate as described therein. The reaction is performed in 50 μls of reaction mixture containing 50 nM of either E. coli or S. pneumoniae SPase I, 50 μM substrate, and a series dilution of inhibitor. Inhibitors are dissolved in dimethylsulfoxide (DMSO). Compounds in DMSO are diluted in reaction buffer. The final DMSO concentration in the reaction mixtures is 2% (v/v). Reaction mixtures are incubated at 37° C. for 1-2 hrs. The IC50 is calculated using a nonlinear regression method with GraphPad Prism™ Software (GraphPad G3-A13127-507). The inhibitory activity of lipoglycopeptides 1-8 against both E. coli and S. pneumoniae signal peptidases, are summarized in Table 7.
Target sequence in this assay (P00803 77-324 I81L): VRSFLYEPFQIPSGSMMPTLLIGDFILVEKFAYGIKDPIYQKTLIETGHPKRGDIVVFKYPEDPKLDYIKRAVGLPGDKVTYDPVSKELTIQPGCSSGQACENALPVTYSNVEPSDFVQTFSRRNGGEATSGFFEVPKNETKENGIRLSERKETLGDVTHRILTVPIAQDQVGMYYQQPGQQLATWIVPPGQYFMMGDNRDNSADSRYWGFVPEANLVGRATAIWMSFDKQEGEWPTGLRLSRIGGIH

[4] = system: Staphylococcus aureus SA027; experiment: Broth micro-dilution MIC, S. aureus SA027; type: cell-based; details: MHII broth, 23-24 hr at 37° C.
Experimental: as §1

[5] = system: S. pneumoniae R6; experiment: Broth micro-dilution MIC, S. pneumoniae R6; type: cell-based; details: 23-24 hr at 37° C.; for MIC: Streptococcus pneumoniae, R6, 2XsTH broth; for MIC, S. pneumoniae R6: 2XsTH broth
Experimental: as §1

[6] = biological target: T2, S. pneumoniae SPase I (Streptococcus pneumoniae serotype 4, UniProt O07344); experiment: Fluorimetric IC50 determination, S. pneumoniae signal peptidase; type: biochemical; details: 50 nM SPase I, 50 μM fluorogenic substrate, 37° C., 1-2 hrs
T2 construct: made in house
Experimental: Procedures for cloning, expression and purification of S. pneumoniae Spase can be found in reference (Peng, et al. (2001) J. Bacterol. 183, 621-627).
as §2

[7] = system: Haemophilus influenzae ATCC 49247; experiment: Broth micro-dilution MIC, H. influenzae ATCC 49247; type: cell-based; details: ATCC49247, read-out: MIC, H. influenzae ATCC49247
Experimental: as §1

[8] = system: E. coli EL683; experiment: Broth micro-dilution MIC, E. coli EL683; type: cell-based; details: Escherichia coli, MHII broth, 23-24 hr at 37° C.
Experimental: as §1

[9] = system: Staphylococcus aureus (ATCC 33592); experiment: Beta-lactamase release assay; type: cell-based; details: beta-lactamase-producing S. aureus ATCC 33592, 2 hr incubation with inhibitor
Experimental: In Staphylococcus aureus, signal peptidase cleaves beta-lactamase, resulting in the release of beta-lactaidase into the medium. In this example, the ability of lipoglycopeptides 1,2, and 5 to inhibit the release of beta-lactamase from Staphylococcus aureus into the medium is examined.
Staphylococcus aureus (ATCC 33592) cells are grown overnight in a series dilution in Brain Heart Infusion (BHI) (Gerhardt, P., et al., (1994) Methods for General and Molecular Bacteriology. American Society for Microbiology, Washington, D.C.) medium in a 37° C. incubator containing 5% CO2. Cultures with an OD660 less than 0.3 are centrifuged, and the cells are washed once with fresh BHI medium. The cells are then resuspended in fresh BHI medium to an initial OD660 of 0.15-0.2. At the same time, the selected inhibitor is diluted from the DMSO stock solution into BHI medium at different concentrations, and is added to the cells which are then incubated at 37° C. under 5% CO2 for 2 hr. The final DMSO concentration in the reaction mixtures is 1% (v/v). The OD660 is measured at the end of incubation. The cells are centrifuged, and the supernatant is saved for the determination of secreted beta-lactamase. The pellet is washed once with fresh BHI medium, re-suspended in the equivalent volume of fresh BHI medium, frozen, and then thawed […]. for three cycles, and used for the determination of retained beta-lactamase. For the determination of beta-lactamase activity, 100 μl reaction mixture (30-50 μls of supernatant or lysed cells) is incubated with 250 μM nitrocefin in 1×PBS buffer (phosphate buffered saline) (pH 6.8) at 37° C. for 30-60 min. Nitrocefin is the substrate for beta-lactamase. Cleavage of nitrocefin results in an increase in absorbance at 482 nm. The absorbance at 482 nm (OD482) is measured at the beginning and at the end of the reaction. The secreted and the retained beta-lactamase activities are calculated based upon the ΔOD482.

T2 sequence (O07344 whole entry): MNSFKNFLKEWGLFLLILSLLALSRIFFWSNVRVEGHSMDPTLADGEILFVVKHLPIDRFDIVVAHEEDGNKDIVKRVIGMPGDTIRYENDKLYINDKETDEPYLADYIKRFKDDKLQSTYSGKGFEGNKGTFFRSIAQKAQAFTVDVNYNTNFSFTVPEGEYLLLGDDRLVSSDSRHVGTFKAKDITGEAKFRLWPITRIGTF

## CC(C)CCCCCCCCCCC(=O)N(C)C(CO)C(=O)NC(C)C(=O)NCC(=O)N(C)C1C(=O)NC(C)C(=O)NC(C(=O)O)Cc2ccc(O)c(c2)-c2cc1ccc2OC1OC(C)C(O)C(O)C1O (stereo not shown) [Compound 7]
[1]
  Ki: 50.4 nM
[2]
  MIC: 16 µg/mL (≈ 16 µM)
[3]
  IC50: 110 nM
[4]
  MIC: > 64 µg/mL
[5]
  MIC: > 64 µg/mL
[6]
  IC50: 6100 nM
[7]
  MIC: > 64 µg/mL

## CC(C)CCCCCCCCCCCCC(=O)N(C)C(CO)C(=O)NC(C)C(=O)NCC(=O)N(C)C1C(=O)NC(C)C(=O)NC(C(=O)O)Cc2ccc(O)c(c2)-c2cc1ccc2OC1OC(C)C(O)C(O)C1O (stereo not shown) [Compound 5]
[8]
  MIC: 4 µg/mL (≈ 3.89 µM)
[1]
  Ki: 57.5 nM
[2]
  MIC: 16 µg/mL (≈ 15.6 µM)
[3]
  IC50: 130 nM
[4]
  MIC: > 64 µg/mL
[5]
  MIC, S. pneumoniae R6: 8 µg/mL (≈ 7.79 µM)
  MIC: 16 µg/mL (≈ 15.6 µM)
[6]
  IC50: 2400 nM
[7]
  MIC: > 64 µg/mL
[9]
  inhibition of secretion of beta-lactamase: inhibit the secretion of beta-lactamase

## CCCCCCCCCCCCCC(=O)N(C)C(CO)C(=O)NC(C)C(=O)NCC(=O)N(C)C1C(=O)NC(C)C(=O)NC(C(=O)O)Cc2ccc(O)c(c2)-c2cc1ccc2OC1OC(C)C(O)C(O)C1O (stereo not shown) [Compound 6]
[2]
  MIC: 8 µg/mL (≈ 8.01 µM)
[3]
  IC50: 110 nM
[4]
  MIC: > 64 µg/mL
[5]
  MIC: 64 µg/mL (≈ 64.1 µM)
[6]
  IC50: 6600 nM
[7]
  MIC: > 64 µg/mL

## CC(C)CCCCCCCCCCC(=O)N(C)C(CO)C(=O)NC(C)C(=O)NCC(=O)N(C)C1C(=O)NC(C)C(=O)NC(C(=O)O)Cc2ccc(O)c(c2)-c2cc1cc(O)c2OC1OC(C)C(O)C(O)C1O (stereo not shown) [Compound 8]
[1]
  Ki: 110 nM
[2]
  MIC: 8 µg/mL (≈ 7.88 µM)
[3]
  IC50: 110 nM
[4]
  MIC: > 64 µg/mL
[5]
  MIC: > 64 µg/mL
[6]
  IC50: 24900 nM
[7]
  MIC: > 64 µg/mL

## CC(C)CCCCCCCCCCCC(=O)N(C)C(CO)C(=O)NC(C)C(=O)NCC(=O)N(C)C1C(=O)NC(C)C(=O)NC(C(=O)O)Cc2ccc(O)c(c2)-c2cc1ccc2OC1OC(C)C(O)C(O)C1O (stereo not shown) [Compound 3]
[3]
  IC50: 130 nM
[6]
  IC50: 7000 nM

## CCCCCCCCCCCCCCCC(=O)N(C)C(CO)C(=O)NC(C)C(=O)NCC(=O)N(C)C1C(=O)NC(C)C(=O)NC(C(=O)O)Cc2ccc(O)c(c2)-c2cc1cc(O)c2OC1OC(C)C(O)C(O)C1O (stereo not shown) [Compound 2]
[8]
  MIC: 8 µg/mL (≈ 7.67 µM)
[1]
  Ki: 158 nM
[2]
  MIC: 32 µg/mL (≈ 30.7 µM)
[3]
  IC50: 190 nM
[4]
  MIC: 64 µg/mL (≈ 61.3 µM)
[5]
  MIC, S. pneumoniae R6: 16 µg/mL (≈ 15.3 µM)
  MIC: 8 µg/mL (≈ 7.67 µM)
[6]
  IC50: 10300 nM
[7]
  MIC: 64 µg/mL (≈ 61.3 µM)
[9]
  inhibition of secretion of beta-lactamase: inhibit the secretion of beta-lactamase

## CCCCCCCCCCCCCCC(=O)N(C)C(CO)C(=O)NC(C)C(=O)NCC(=O)N(C)C1C(=O)NC(C)C(=O)NC(C(=O)O)Cc2ccc(O)c(c2)-c2cc1ccc2OC1OC(C)C(O)C(O)C1O (stereo not shown) [Compound 4]
[3]
  IC50: 130 nM
[6]
  IC50: 5900 nM

## CC(C)CCCCCCCCCCCCC(=O)N(C)C(CO)C(=O)NC(C)C(=O)NCC(=O)N(C)C1C(=O)NC(C)C(=O)NC(C(=O)O)Cc2ccc(O)c(c2)-c2cc1cc(O)c2OC1OC(C)C(O)C(O)C1O (stereo not shown) [Compound 1]
[8]
  MIC: 8 µg/mL (≈ 7.67 µM)
[2]
  MIC: 32 µg/mL (≈ 30.7 µM)
[3]
  IC50: 170 nM
[4]
  MIC: 32 µg/mL (≈ 30.7 µM)
[5]
  MIC: 16 µg/mL (≈ 15.3 µM)
[6]
  IC50: 7100 nM
[7]
  MIC: 64 µg/mL (≈ 61.3 µM)
[9]
  inhibition of secretion of beta-lactamase: inhibit the secretion of beta-lactamase
